Values quoted from earlier work, collected in paper PMC12239574 (mBio, 2025).

Test system: SARS-CoV-2 with M^pro E166V

| Compound | fold increase in the antiviral EC50 relative to the wild-type virus |
| --- | --- |
| Cn1cnc(Cn2c(=O)[nH]/c(=N\c3cc4cn(C)nc4cc3Cl)n(Cc3cc(F)c(F)cc3F)c2=O)n1 [ensitrelvir] | 23 fold |
| CC(C)(C)[C@H](NC(=O)C(F)(F)F)C(=O)N1C[C@H]2[C@@H]([C@H]1C(=O)N[C@H](C#N)C[C@@H]1CCNC1=O)C2(C)C [nirmatrelvir] | 100 fold |
